Patent publication US12404265B2, “Substituted pyridine derivatives as SARM1 inhibitors” (Nura Bio, Inc., priority 2020, dated 2025)

Target: T1, human SARM1(50-724) (Homo sapiens, UniProt Q6SZW1)
T1 construct: 40 nM human SARM1(50-724)
T1 sequence (Q6SZW1 50-724): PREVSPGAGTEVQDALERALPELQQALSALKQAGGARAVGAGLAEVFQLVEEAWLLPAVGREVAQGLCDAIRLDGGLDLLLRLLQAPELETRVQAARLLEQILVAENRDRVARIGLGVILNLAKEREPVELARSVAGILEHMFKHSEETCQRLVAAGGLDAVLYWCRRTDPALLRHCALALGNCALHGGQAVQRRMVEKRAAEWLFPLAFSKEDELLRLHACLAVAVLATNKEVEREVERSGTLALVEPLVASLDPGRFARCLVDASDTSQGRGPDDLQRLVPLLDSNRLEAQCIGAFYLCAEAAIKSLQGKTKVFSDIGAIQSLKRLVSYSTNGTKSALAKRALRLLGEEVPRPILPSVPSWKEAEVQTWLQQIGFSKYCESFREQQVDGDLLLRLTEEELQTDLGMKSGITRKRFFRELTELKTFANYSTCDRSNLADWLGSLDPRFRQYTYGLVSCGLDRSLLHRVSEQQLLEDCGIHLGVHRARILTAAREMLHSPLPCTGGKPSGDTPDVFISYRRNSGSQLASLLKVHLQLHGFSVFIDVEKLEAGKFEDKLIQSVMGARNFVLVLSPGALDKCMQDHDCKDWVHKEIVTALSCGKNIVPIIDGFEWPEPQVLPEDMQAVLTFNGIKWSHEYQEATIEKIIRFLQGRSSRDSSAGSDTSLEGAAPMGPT
Assay: SARM1 NADase biochemical assay (HPLC of NAD and NAM)
Settings: 40 nM human SARM1(50-724), 0.3 mM NMN, 20 μM NAD, 60 minutes room temperature; dose-response from 100 μM, 1:3 dilution
Experimental: Each reaction was run at a volume of 20 μL containing 50 μM compound (dissolved in DMSO; final concentration of DMSO is 1% v/v), 40 nM human SARM1(50-724), 0.3 mM NMN, 20 μM NAD, 1 mM TCEP, 25 mM HEPES pH 7.4, 10 mM KCl and 10 mM MgCl2. The reaction was incubated at room temperature for 60 minutes and quenched with 20 μL of 0.4% formic acid. The samples were run on Agilent HPLC 1260 Infinity II with Synergi 2.5 μM Fusion-RP 100 Å (100×3.0 mm) LC column from Phenomenex. Total run time for each sample was 4 minutes. The run was isocratic with 1.5% methanol in 40 mM ammonium acetate pH 6.0. Samples were run at a flow rate of 0.8 mL/min at 55° C. Peak areas of NAD and NAM were determined using OpenLAB CDS (Chem Station edition) software. For dose-response, the compound was diluted serially 1:3 in DMSO and added to the reaction starting at a final compound concentration of 100 μM in 1% DMSO.

For `Cc1c(-c2ccncc2)n[nH]c1NC(=O)C(F)Cc1ccc(Cl)cc1` (racemic) [Example 18, (rac)-3-(4-chlorophenyl)-2-fluoro-N-(4-methyl-3-(pyridin-4-yl)-1H-pyrazol-5-yl)propanamide], which IC50 is on record?
The IC50 was less than 1 µM.

How did the IC50 turn out when `Cc1c(-c2ccncc2)n[nH]c1NC(=O)C(F)Cc1ccc(C#N)c(F)c1` (racemic) [Example 70, (rac)-3-(4-Cyano-3-fluorophenyl)-2-fluoro-N-(4-methyl-3-(pyridin-4-yl)-1H-pyrazol-5-yl)propanamide] was run?
The IC50 was 1 to 10 µM.

With `Cc1c(-c2ccncc2)n[nH]c1NC(=O)C(F)Cc1cc(F)c(Cl)c(F)c1` (racemic) [Example 71, (rac)-3-(4-Chloro-3,5-difluorophenyl)-2-fluoro-N-(4-methyl-3-(pyridin-4-yl)-1H-pyrazol-5-yl)propanamide] as the compound, how does the IC50 read?
The IC50 was less than 1 µM.

`Cc1c(NC(=O)C(O)Cc2ccc(Cl)cc2)cnn1-c1ccncc1` (racemic) [Example 150, (rac)-3-(4-Chlorophenyl)-2-hydroxy-N-(5-methyl-1-(pyridin-4-yl)-1H-pyrazol-4-yl)propanamide] was tested. Which IC50 did it give?
The IC50 was 1 to 10 µM.

How did the IC50 turn out when `Cc1c(-c2ccncc2)n[nH]c1N1C(=O)CC(Cc2ccc(Cl)cc2)C1=O` (racemic) [Example 154, (rac)-3-(4-Chlorobenzyl)-1-(4-methyl-3-(pyridin-4-yl)-1H-pyrazol-5-yl)pyrrolidine-2,5-dione] was run?
The IC50 was 1 to 10 µM.

For `O=C1CC(c2ccc(Cl)cc2)CC(=O)N1c1cc(-c2ccncc2)n[nH]1` (racemic) [Example 155, (rac)-4-(4-Chlorophenyl)-1-(3-(pyridin-4-yl)-1H-pyrazol-5-yl)piperidine-2,6-dione], which IC50 is on record?
Its IC50 is less than 1 µM.

How did the IC50 turn out when `O=C1CC(Cc2ccc(Cl)cc2)C(=O)N1c1cc(-c2ccncc2)n[nH]1` (racemic) [Example 156, (rac)-3-(4-Chlorobenzyl)-1-(3-(pyridin-4-yl)-1H-pyrazol-5-yl)pyrrolidine-2,5-dione] was run?
The IC50 was less than 1 µM.

With `Cc1c(-c2ccncc2)n[nH]c1N1C(=O)CC(c2ccc(Cl)cc2)CC1=O` (racemic) [Example 157, (rac)-4-(4-Chlorophenyl)-1-(4-methyl-3-(pyridin-4-yl)-1H-pyrazol-5-yl)piperidine-2,6-dione] as the compound, how does the IC50 read?
The IC50 was 1 to 10 µM.

How did the IC50 turn out when `CC(=O)N(C(=O)CCc1ccc(Cl)cc1)c1[nH]nc(-c2ccncc2)c1C` [Example 1] was run?
Its IC50 is less than 1 µM.

How did the IC50 turn out when `CCC(=O)N(C(=O)CCc1ccc(Cl)cc1)c1[nH]nc(-c2ccncc2)c1C` [Example 2, 3-(4-Chlorophenyl)-N-(4-methyl-3-(pyridin-4-yl)-1H-pyrazol-5-yl)-N-propionylproanamide] was run?
The IC50 was 1 to 10 µM.

With `Cc1c(-c2ccncc2)n[nH]c1N(C(=O)CCc1ccc(Cl)cc1)C(=O)CCc1ccc(Cl)cc1` [Example 3, 3-(4-Chlorophenyl)-N-(3-(4-chlorophenyl)propanoyl)-N-(4-methyl-3-(pyridin-4-yl)-1H-pyrazol-5-yl)propanamide] as the compound, how does the IC50 read?
Its IC50 is less than 1 µM.

With `Cc1c(-c2ccncc2)n[nH]c1N(C(=O)CCc1ccc(Cl)cc1)C(=O)CCc1cccc(Cl)c1` [Example 4, 3-(3-Chlorophenyl)-N-(3-(4-chlorophenyl)propanoyl)-N-(4-methyl-3-(pyridin-4-yl)-1H-pyrazol-5-yl)propanamide] as the compound, how does the IC50 read?
The IC50 was less than 1 µM.

How did the IC50 turn out when `Cc1c(-c2ccncc2)n[nH]c1N(C(=O)CCc1ccc(Cl)cc1)C(=O)CCc1ccccc1Cl` [Example 5, 3-(2-Chlorophenyl)-N-(3-(4-chlorophenyl)propanoyl)-N-(4-methyl-3-(pyridin-4-yl)-1H-pyrazol-5-yl)propanamide] was run?
The IC50 was less than 1 µM.

`Cc1c(-c2ccncc2)n[nH]c1N(C(=O)CCc1ccccc1)C(=O)CCc1ccc(Cl)cc1` [Example 6, 3-(4-Chlorophenyl)-N-(4-methyl-3-(pyridin-4-yl)-1H-pyrazol-5-yl)-N-(3-phenylpropanoyl)propanamide] was tested. Which IC50 did it give?
Its IC50 is less than 1 µM.

For `Cc1c(-c2ccncc2)n[nH]c1N(C(=O)CCc1ccc(Cl)cc1)C(=O)CCC(C)C` [Example 7, N-(3-(4-Chlorophenyl)propanoyl)-4-methyl-N-(4-methyl-3-(pyridin-4-yl)-1H-pyrazol-5-yl)pentanamide], which IC50 is on record?
The IC50 was 1 to 10 µM.

How did the IC50 turn out when `Cc1c(-c2ccncc2)n[nH]c1N(C(=O)CCc1ccc(Cl)cc1)C(=O)CCC1CCCC1` [Example 8, 3-(4-Chlorophenyl)-N-(3-cyclopentylpropanoyl)-N-(4-methyl-3-(pyridin-4-yl)-1H-pyrazol-5-yl)propanamide] was run?
The IC50 was less than 1 µM.

Which IC50 does the source give for `Cc1c(-c2ccncc2)n[nH]c1N(C(=O)CCc1cc(F)c(Cl)c(F)c1)C(=O)CCc1cc(F)c(Cl)c(F)c1` [Example 9, 3-(4-Chloro-3,5-difluorophenyl)-N-(3-(4-chloro-3,5-difluorophenyl)propanoyl)-N-(4-methyl-3-(pyridin-4-yl)-1H-pyrazol-5-yl)propanamide] here?
Its IC50 is less than 1 µM.

For `Cc1c(-c2ccncc2)n[nH]c1N(C(=O)CCc1cc(F)c(F)c(F)c1)C(=O)CCc1cc(F)c(F)c(F)c1` [Example 10, N-(4-Methyl-3-(pyridin-4-yl)-1H-pyrazol-5-yl)-3-(3,4,5-trifluorophenyl)-N-(3-(3,4,5-trifluorophenyl)propanoyl)propanamide], which IC50 is on record?
The IC50 was less than 1 µM.

For `Cc1c(-c2ccncc2)n[nH]c1N(C(=O)CCc1ccc(Cl)cc1)S(C)(=O)=O` [Example 11, 3-(4-Chlorophenyl)-N-(4-methyl-3-(pyridin-4-yl)-1H-pyrazol-5-yl)-N-(methylsulfonyl)propanamide], which IC50 is on record?
Its IC50 is less than 1 µM.

Which IC50 does the source give for `Cc1c(-c2ccncc2)n[nH]c1N(C(=O)CCc1ccc(Cl)cc1)C(=O)C(C)C` [Example 12, 3-(4-Chlorophenyl)-N-isobutyryl-N-(4-methyl-3-(pyridin-4-yl)-1H-pyrazol-5-yl)propanamide] here?
The IC50 was 1 to 10 µM.

For `CCc1c(-c2ccncc2)n[nH]c1NC(=O)CCc1cc(F)c(Cl)c(F)c1` [Example 13, 3-(4-Chloro-3,5-difluorophenyl)-N-(4-ethyl-3-(pyridin-4-yl)-1H-pyrazol-5-yl)propanamide], which IC50 is on record?
The IC50 was less than 1 µM.

How did the IC50 turn out when `CCc1c(-c2ccncc2)n[nH]c1NC(=O)CCc1ccc(Cl)cc1` [Example 14, 3-(4-Chlorophenyl)-N-(4-ethyl-3-(pyridin-4-yl)-1H-pyrazol-5-yl)propanamide] was run?
Its IC50 is less than 1 µM.

With `CCc1c(-c2ccncc2)n[nH]c1NC(=O)CCc1cc(F)c(C#N)c(F)c1` [Example 15, 3-(4-Cyano-3,5-difluorophenyl)-N-(4-ethyl-3-(pyridin-4-yl)-1H-pyrazol-5-yl)propanamide] as the compound, how does the IC50 read?
The IC50 was less than 1 µM.

For `CCc1c(-c2ccncc2)n[nH]c1NC(=O)CCc1ccc(C#N)c(F)c1` [Example 16, 3-(4-Cyano-3-fluorophenyl)-N-(4-ethyl-3-(pyridin-4-yl)-1H-pyrazol-5-yl)propanamide], which IC50 is on record?
Its IC50 is less than 1 µM.

Which IC50 does the source give for `CCc1c(-c2ccncc2)n[nH]c1NC(=O)CCc1ccc(Cl)s1` [Example 17] here?
Its IC50 is less than 1 µM.

With `Cc1c(-c2ccncc2)n[nH]c1NC(=O)CCc1ccc(Cl)cc1` [Example 19, 3-(4-Chlorophenyl)-N-(4-methyl-3-(pyridin-4-yl)-1H-pyrazol-5-yl)propanamide] as the compound, how does the IC50 read?
The IC50 was less than 1 µM.

`Cc1c(-c2ccncc2)n[nH]c1NC(=O)CCc1ccc2c(c1)OCO2` [Example 20, 3-(Benzo[d][1,3]dioxol-5-yl)-N-(4-methyl-3-(pyridin-4-yl)-1H-pyrazol-5-yl)propanamide] was tested. Which IC50 did it give?
The IC50 was less than 1 µM.

Which IC50 does the source give for `Cc1c(-c2ccncc2)n[nH]c1NC(=O)CCc1cc(Cl)cc(Cl)c1` [Example 21, 3-(3,5-Dichlorophenyl)-N-(4-methyl-3-(pyridin-4-yl)-1H-pyrazol-5-yl)propanamide] here?
The IC50 was 1 to 10 µM.

Which IC50 does the source give for `Cc1c(-c2ccncc2)n[nH]c1NC(=O)CCc1ccccc1` [Example 22, N-(4-Methyl-3-(pyridin-4-yl)-1H-pyrazol-5-yl)-3-phenylpropanamide] here?
The IC50 was 1 to 10 µM.

How did the IC50 turn out when `Cc1c(-c2ccncc2)n[nH]c1NC(=O)CCc1ccccc1Cl` [Example 23, 3-(2-Chlorophenyl)-N-(4-methyl-3-(pyridin-4-yl)-1H-pyrazol-5-yl)propanamide] was run?
Its IC50 is 1 to 10 µM.

For `Cc1ccc(CCC(=O)Nc2[nH]nc(-c3ccncc3)c2C)cc1` [Example 24, N-(4-Methyl-3-(pyridin-4-yl)-1H-pyrazol-5-yl)-3-(p-tolyl)propanamide], which IC50 is on record?
Its IC50 is less than 1 µM.

Which IC50 does the source give for `Cc1cccc(CCC(=O)Nc2[nH]nc(-c3ccncc3)c2C)c1` [Example 25, N-(4-Methyl-3-(pyridin-4-yl)-1H-pyrazol-5-yl)-3-(m-tolyl)propanamide] here?
The IC50 was 1 to 10 µM.

With `Cc1ccccc1CCC(=O)Nc1[nH]nc(-c2ccncc2)c1C` [Example 26, N-(4-Methyl-3-(pyridin-4-yl)-1H-pyrazol-5-yl)-3-(o-tolyl)propanamide] as the compound, how does the IC50 read?
Its IC50 is 1 to 10 µM.
